Assay results: patent US20110262025A1, “Cosmetic Compositions and Methods for Maintaining and Improving Barrier Function of the Stratum Corneum and to Reduce the Visible Signs of Aging in Skin” (priority 2010, published 2011)
Blank lines part the entries; values can stand above or below the compound they belong to. Where a SMILES comes first, the peptide text is derived from it. The star is where a group is joined. Cbz = O=C(OCc1ccccc1)*; CH2F = FC*

Assays:
Aquaporin 3 = test: Multiplex mRNA analysis (Panomics QuantiGene Plex) in keratinocytes; assay type: cell-based; settings: neonatal human keratinocytes, 24 hours, vs no treatment
Experimental: A multiplex mRNA analysis was conducted. RNA was isolated from neonatal human keratinocytes. Neonatal human keratinocytes (Cascade Biologics # C-001-5C) were grown to 40% confluence in 6-well tissue culture plates then treated with compounds for 24 hours (3 replicates per treatment). The treatments included several concentrations of Hexamidine, Niacinamide, and /or Pentanediol. Additionally, 0.00194% (100 μM) caffeine and no-treatment controls were performed.
Several targets were measured with Panomics QuantiGene Plex Assay kit, a multi-analyte quantitative bead-based assay. The fluorescence intensity values, measured by a Bio-Rad Bio-Plex 100 instrument, for those samples yielding sufficient RNA are shown for Aquaporin 3, CDD44 antigen, and Claudin 1. Also measured were Glyceraldehyde-3-phosphate dehydrogenase, Collagen 1α2, Filaggrin, Serine palmitoyltransferase, Interleukin 1,3-hydroxy-3methylglutaryl-coenzyme A reductase, and Interferon gamma.

[1] = system: genes associated with SC lipid pathways, Dermaquant model keratinocytes and fibroblasts; test: Transcriptional profiling (Affymetrix U133A plus 2) in aged-equivalent skin culture; assay type: cell-based, human; settings: 0.1% Hexamidine vs vehicle (water), 4-48 hours
Experimental: The Experimental design is set forth in Table I. Cultures were treated and harvested at indicated time points. Total RNA extraction, labeling and hybridization to AffymetrixTM U133A plus 2 gene chips were conducted. Data were subjected to normalization and statistical analysis.

Epiderm 201 cultures = test: TEWL (evaporimeter) in epidermal cultures; assay type: cell-based, human; settings: 1% Niacinamide, 24 hour treatment
From the text: Biomarker endpoints and certain clinical skin instrumental measurements, such as those used for skin barrier determinations, can be detected in skin equivalent cultures. As noted above, the stratum corneum barrier consists of flattened, terminally differentiated corneocytes surrounded by specialized lamellar lipids, which act to retard loss of water from the skin's surface. Water loss can be measured functionally by use of an evaporimeter instrument wherein the endpoint measured is TEWL, and is expressed in units of grams of water per skin per hour. In one validity test the present inventors took epidermal cultures from a commercial supplier (Epiderm 201 cultures from MatTek Corp., Ashland Mass.) grew them in cultures for four days whereby the number of differentiated cell layers and stratum corneum thickness was increased during this period. […] These findings indicate that in vitro epidermal constructs form a functional water barrier that can be enhanced by compounds such as Niacinamide.

cornification = settings: after barrier disruption; cited from earlier work

- gene encoding rate limiting enzyme in biosynthesis of cholesterol (HMGCR) [1]: up-regulation
- gene encoding rate limiting enzyme in biosynthesis of fatty acid (ACACA) [1]: up-regulation
- gene encoding rate limiting enzyme in biosynthesis of sphingolipid (SPTLC1/2) [1]: up-regulation
Compound: N=C(N)c1ccc(OCCCCCCOc2ccc(C(=N)N)cc2)cc1 [Hexamidine, 4,4′-(hexamethylenedioxy)dibenzenecarboximidamide]
- Aquaporin 3 expression (Aquaporin 3): upregulated
- cellular cholesterol and fatty acid uptake mechanisms [1]: up-regulation
- expression of gene involved in LB formation (ABCAl2) [1]: Increased expression
- expression of gene involved in LB secretion (ABHD5) [1]: Increased expression
- mitochondrial cholesterol and fatty acid utilization pathways [1]: down-regulation
- transcriptional activators of genes involved in lipid metabolism [1]: up-regulation

Compound: NC(=O)c1cccnc1 [Niacinamide]
- TEWL levels (Epiderm 201 cultures): reduced further

Compound: COC(=O)C[C@H](NC(=O)[C@H](C)NC(=O)[C@@H](NC(=O)OCc1ccccc1)C(C)C)C(=O)CF [Z-VAD-FMK] (Cbz-Val-Ala-Asp(OMe)-CH2F)
- cornification (cornification): delays

Compound: Pentanediol
- Aquaporin 3 expression (Aquaporin 3): upregulated
